Experimental data: publication PMC3214022, “Plasmodium falciparum Parasites Are Killed by a Transition State Analogue of Purine Nucleoside Phosphorylase in a Primate Animal Model” (PLoS ONE, 2011)
“And” between values parts separate entries of the source, which are not always exact repeats. Equal values may be shown once.

Experiment: Weights, CBC and blood chemistry, Table S1 sheet PD-1 (efficacy study in P. falciparum-infected Aotus)
Type: in vivo, Aotus lemurinus lemurinus
Description: Laboratory bred Aotus lemurinus lemurinus monkeys (0.75–0.89 kg) were maintained as described. […] Blood samples were collected before the treatment started (t = 0), 0.05 h, 0.5 h, 1 h, 2 h, 6 h, 24 h, 48 h, and 6, 12 and 18 days after the first dose from each monkey and processed as described below. Pharmacokinetic parameters were calculated using PKSolver. For efficacy studies, Aotus monkeys were inoculated intravenously with 5×10^6 parasites of the FVO strain of P. falciparum in an approved treatment protocol. […] Parasitaemia was determined by Giemsa-stained thick blood smears prepared daily from the marginal ear vein [41]. Blood samples were collected from each monkey and transferred to tubes containing lithium heparin, centrifuged and both plasma and blood cells were frozen at −80 °C until analysis. Animals received a physical examination and blood chemistry profiles were monitored after treatment as described previously. Any monkey not responding appropriately to treatment was cured of its infection with mefloquine (40 mg kg^−1). […] The day of clearance is defined as the first of three consecutive days in which the thick blood films are parasite negative. The day of recrudescence is the first of three consecutive days of positive thick blood films after a period of clearance. Suppression is defined as a transient decrease in the parasite count post-treatment without clearance.

[1] = IV 10 mg/kg once a day/3 days, day -2, 10 mg/kg
[2] = oral 50 mg/kg once a day/3 days, day 9, 50 mg/kg
[3] = oral 50 mg/kg once a day/3 days, day 12, 50 mg/kg
[4] = oral 50 mg/kg once a day/3 days, day 19, 50 mg/kg
[5] = oral 50 mg/kg once a day/3 days, day 25, 50 mg/kg
[6] = oral 50 mg/kg once a day/3 days, day -2, 50 mg/kg

## Nc1nc2c(CN3CC(O)C(CO)C3)c[nH]c2c(=O)[nH]1 (centres unmarked) [BCX4945, 4′-deaza-1′-aza-2′-deoxy-1′-(9-methylene)-Immucillin-G]
[1]
  Mean Platelet Volume: 14.7 fL and 12.2 fL and 11 fL and 10.9 fL and 13.1 fL
  Monocytes (%): 5.1% and 3.6% and 2.9% and 6.5% and 4.2%
  Monocytes (x 103/ul): 0.9 x 103/ul and 0.8 x 103/ul and 0.6 x 103/ul and 0.5 x 103/ul and 0.7 x 103/ul
  Platelets: 354000 µL⁻¹ and 250000 µL⁻¹ and 406000 µL⁻¹ and 431000 µL⁻¹ and 270000 µL⁻¹ and 371000 µL⁻¹
  Red Cell Distribution Width: 12.5% and 12.2% and 11.4% and 12.4% and 12%
  Reticulocytes: 1.9% and 1% and 1.5% and 1.2% and 1.3%
  WEIGHT: 680 g and 766 g and 832 g and 849 g and 684 g
[2]
  Blood Urea Nitrogen: 14.3 mg/dL and 15 mg/dL and 13.15 mg/dL
  Creatinine: 0.672 mg/dL and 0.825 mg/dL and 0.587 mg/dL
  Erythrocytes: 4.76e+06 µL⁻¹ and 5.14e+06 µL⁻¹ and 3.94e+06 µL⁻¹
  Granulocytes (%): 21.7% and 25.8% and 21.1%
  Granulocytes (x 103/ul): 4.4 x 103/ul and 2.3 x 103/ul and 3.3 x 103/ul
  Hematocrit: 38.1% and 39.5% and 32.5%
  Hemoglobin: 12.9 g/dL and 13.5 g/dL and 10.8 g/dL
  Lymphocytes (%): 61% and 66.1% and 63.4%
  Mean Corpuscular Hemoglobin: 27.1 pg and 26.3 pg and 27.5 pg
  Mean Corpuscular Volume: 80.1 fL and 76.8 fL and 82.4 fL
  Mean Hemoglobin Content: 33.8 g/dL and 34.2 g/dL and 33.4 g/dL
  Mean Platelet Volume: 11 fL and 13.9 fL
  Monocytes (%): 17.3% and 8.1% and 15.5%
  Red Cell Distribution Width: 13.3% and 12% and 10.8%
  Reticulocytes: 2.5% and 1.1% and 1%
  WEIGHT: 851 g and 873 g and 776 g
[3]
  Blood Urea Nitrogen: 23.05 mg/dL and 23.55 mg/dL and 26.95 mg/dL
  Creatinine: 0.563 mg/dL and 0.686 mg/dL and 0.565 mg/dL
  Erythrocytes: 4.04e+06 µL⁻¹ and 4.25e+06 µL⁻¹ and 2.77e+06 µL⁻¹
  Glutamate Pyruvate Transaminase: 46.7 U/L and 46.1 U/L and 37.8 U/L
  Granulocytes (%): 17.9% and 26.3% and 14.8%
  Hematocrit: 33.2% and 32.4% and 22.7%
  Hemoglobin: 7.7 g/dL
  Leucocytes: 42000 µL⁻¹ and 22200 µL⁻¹ and 22000 µL⁻¹
  Lymphocytes (%): 68.1% and 66.2% and 76.8%
  Lymphocytes (x 103/ul): 28.6 x 103/ul and 14.7 x 103/ul and 16.9 x 103/ul
  Mean Corpuscular Hemoglobin: 27.7 pg and 26.4 pg and 27.6 pg
  Mean Corpuscular Volume: 82.1 fL and 76.4 fL and 81.9 fL
  Mean Hemoglobin Content: 33.7 g/dL and 34.5 g/dL
  Mean Platelet Volume: 11.3 fL and 14.6 fL and 11.8 fL
  Monocytes (%): 14% and 7.5% and 8.4%
  Red Cell Distribution Width: 13.4% and 11.3%
  Reticulocytes: 1.9% and 2% and 2.3%
  WEIGHT: 800 g and 804 g and 738 g
[4]
  Blood Urea Nitrogen: 16.75 mg/dL and 18.3 mg/dL and 27.85 mg/dL
  Creatinine: 0.614 mg/dL and 0.695 mg/dL and 0.678 mg/dL
  Erythrocytes: 3.94e+06 µL⁻¹ and 4.96e+06 µL⁻¹ and 3.82e+06 µL⁻¹
  Granulocytes (%): 9.6% and 17.6% and 10.1%
  Hematocrit: 35.3% and 41.8% and 36.2%
  Hemoglobin: 11.5 g/dL and 14 g/dL and 11.6 g/dL
  Lymphocytes (%): 79% and 75.3% and 78.4%
  Mean Corpuscular Hemoglobin: 29.3 pg and 28.3 pg and 30.3 pg
  Mean Corpuscular Volume: 89.8 fL and 84.2 fL and 94.8 fL
  Mean Hemoglobin Content: 32.6 g/dL and 33.6 g/dL and 32 g/dL
  Mean Platelet Volume: 12.3 fL and 13.3 fL and 19.7 fL
  Monocytes (%): 11.4% and 11.5%
  Monocytes (x 103/ul): 6.8 x 103/ul and 3.9 x 103/ul
  Red Cell Distribution Width: 22.7% and 21.9% and 24.4%
  Reticulocytes: 1.7% and 1.6% and 1.8%
  WEIGHT: 832 g and 847 g and 757 g
[5]
  Blood Urea Nitrogen: 24.4 mg/dL and 16 mg/dL and 21 mg/dL
  Creatinine: 0.52 mg/dL and 0.578 mg/dL and 0.663 mg/dL
  Erythrocytes: 4.62e+06 µL⁻¹ and 4.69e+06 µL⁻¹ and 5.44e+06 µL⁻¹
  Glutamate Pyruvate Transaminase: 17.7 U/L and 27.2 U/L
  Hematocrit: 40.4% and 41.4% and 44.4%
  Hemoglobin: 13.5 g/dL and 14 g/dL and 15.5 g/dL
  Leucocytes: 15400 µL⁻¹ and 16400 µL⁻¹ and 15300 µL⁻¹
  Lymphocytes (%): 65.9% and 79.6% and 75.3%
  Lymphocytes (x 103/ul): 10.1 x 103/ul and 13.1 x 103/ul and 11.5 x 103/ul
  Mean Corpuscular Hemoglobin: 29.3 pg and 29.8 pg and 28.6 pg
  Mean Corpuscular Volume: 87.4 fL and 88.1 fL and 81.7 fL
  Mean Hemoglobin Content: 33.5 g/dL and 33.7 g/dL and 35 g/dL
  Mean Platelet Volume: 14.1 fL
  Monocytes (%): 7.3% and 7% and 11.7%
  Monocytes (x 103/ul): 1.1 x 103/ul and 1.8 x 103/ul
  Red Cell Distribution Width: 19.2% and 20.4% and 17.9%
  Reticulocytes: 1.3% and 2.1% and 2%
  WEIGHT: 748 g and 818 g and 853 g
Oral 50 mg/kg once a day/3 days, day -2
  Mean Platelet Volume: 12.8 fL
[6]
  Blood Urea Nitrogen: 18 mg/dL and 23.05 mg/dL
  Creatinine: 0.679 mg/dL and 0.554 mg/dL
  Erythrocytes: 7.17e+06 µL⁻¹ and 6.1e+06 µL⁻¹ and 5.2e+06 µL⁻¹
  Granulocytes (%): 33.3% and 31.8% and 22.4%
  Hematocrit: 54.4% and 48% and 42.5%
  Hemoglobin: 19.3 g/dL and 17 g/dL and 14.7 g/dL
  Leucocytes: 16900 µL⁻¹ and 15400 µL⁻¹ and 11300 µL⁻¹
  Lymphocytes (%): 61.5% and 64.5% and 73.1%
  Lymphocytes (x 103/ul): 10.4 x 103/ul and 9.9 x 103/ul and 8.3 x 103/ul
  Mean Corpuscular Hemoglobin: 26.8 pg and 27.8 pg and 28.2 pg
  Mean Corpuscular Volume: 75.8 fL and 78.6 fL and 81.7 fL
  Mean Hemoglobin Content: 35.4 g/dL and 34.6 g/dL
  Mean Platelet Volume: 10.2 fL and 10.4 fL
  Monocytes (%): 5.2% and 3.7% and 4.5%
  Monocytes (x 103/ul): 0.9 x 103/ul and 0.6 x 103/ul and 0.5 x 103/ul
  Platelets: 463000 µL⁻¹ and 389000 µL⁻¹ and 372000 µL⁻¹
  Red Cell Distribution Width: 11.8% and 13.6% and 10.4%
  Reticulocytes: 1.8% and 2% and 1.7%
  WEIGHT: 804 g and 800 g and 738 g
